Laboratory results as given in PubChem BioAssay (NCI).
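Where inhibition never reached the appropriate level, the endpoint shown equals the highest concentration tested. Otherwise, values were interpolated linearly from a five-concentration, 48-hour dose response in 96-well plates. At the TGI there is no net growth.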

Assays:
Assay in all cases: inhibition of tumour cell growth, NCI panel, 48 h
[1] = test system: MOLT-4 leukemia
[2] = test system: ACHN renal
[3] = test system: HT29 colon
[4] = test system: MALME-3M melanoma
[5] = test system: IGROV1 ovarian
[6] = test system: SF-539 CNS
[7] = test system: TK-10 renal
[8] = test system: NCI-H460 lung
[9] = test system: KM20L2 colon
[10] = test system: OVCAR-5 ovarian
[11] = test system: UO-31 renal
[12] = test system: K-562 leukemia
[13] = test system: OVCAR-8 ovarian
[14] = test system: M19-MEL melanoma
[15] = test system: A549 NSCLC
[16] = test system: DMS 114 small cell lung
[17] = test system: RPMI-8226 leukemia
[18] = test system: UACC-257 melanoma
[19] = test system: LXFL 529 NSCLC
[20] = test system: HOP-18 NSCLC
[21] = test system: SNB-75 CNS
[22] = test system: OVCAR-4 ovarian
[23] = test system: HCT-15 colon
[24] = test system: COLO 205 colon
[25] = test system: SN12C renal
[26] = test system: U251 CNS
[27] = test system: CCRF-CEM leukemia
[28] = test system: SF-268 CNS
[29] = test system: EKVX NSCLC
[30] = test system: HOP-62 NSCLC
[31] = test system: SK-MEL-2 melanoma
[32] = test system: DMS 273 small cell lung
[33] = test system: KM12 colon
[34] = test system: DLD-1 colon
[35] = test system: CAKI-1 renal
[36] = test system: UACC-62 melanoma
[37] = test system: HCT-116 colon
[38] = test system: NCI-H23 lung
[39] = test system: RXF 393 renal
[40] = test system: SNB-19 CNS
[41] = test system: HL-60(TB) leukemia
[42] = test system: SK-MEL-5 melanoma
[43] = test system: SK-MEL-28 melanoma
[44] = test system: OVCAR-3 ovarian
[45] = test system: XF 498 CNS
[46] = test system: SNB-78 CNS
[47] = test system: M14 melanoma
[48] = test system: 786-0 renal
[49] = test system: A498 renal
[50] = test system: RXF-631 renal
[51] = test system: SK-OV-3 ovarian
[52] = test system: SW-620 colon
[53] = test system: SF-295 CNS
[54] = test system: HCC-2998 colon
[55] = test system: LOX IMVI melanoma
[56] = test system: HOP-92 NSCLC
[57] = test system: NCI-H226 lung
[58] = test system: SR leukemia
[59] = test system: NCI-H522 lung

`COc1ccc(OC)c(NC(=O)C(=O)C(C(C)=O)c2nc3ccc(Cl)cc3[nH]c2=O)c1` (configuration not stated) was tested, and the TGI [1] was greater than 50 µM, the TGI [2] was greater than 50 µM and the TGI [3] was greater than 50 µM. It also gave a TGI [4] greater than 50 µM, a TGI [5] greater than 50 µM and a TGI [6] greater than 50 µM. For the same molecule, the TGI [7] was greater than 50 µM, the TGI [8] was greater than 50 µM and the TGI [9] was greater than 50 µM. It also gave a TGI [10] greater than 50 µM, a TGI [11] greater than 50 µM and a TGI [12] greater than 50 µM. For the same molecule, the TGI [13] was greater than 50 µM, the TGI [14] was greater than 50 µM and the TGI [15] was greater than 50 µM. It also gave a TGI [16] greater than 50 µM, a TGI [17] greater than 50 µM and a TGI [18] greater than 50 µM. The TGI [19] was greater than 50 µM, the TGI [20] was greater than 50 µM and the TGI [21] was greater than 50 µM. The TGI [22] was greater than 50 µM, the TGI [23] was greater than 50 µM and the TGI [24] was greater than 50 µM. For the same molecule, the TGI [25] was greater than 50 µM, the TGI [26] was greater than 50 µM and the TGI [27] was greater than 5 µM. It also gave a TGI [28] greater than 50 µM, a TGI [29] greater than 50 µM and a TGI [30] greater than 50 µM. It also gave a TGI [31] greater than 50 µM, a TGI [32] greater than 50 µM and a TGI [33] greater than 50 µM. For the same molecule, the TGI [34] was greater than 50 µM, the TGI [35] was greater than 50 µM and the TGI [36] was greater than 50 µM. For the same molecule, the TGI [37] was greater than 50 µM, the TGI [38] was greater than 50 µM and the TGI [39] was greater than 50 µM. The TGI [40] was greater than 50 µM, the TGI [41] was greater than 50 µM and the TGI [42] was greater than 50 µM. It also gave a TGI [43] greater than 50 µM, a TGI [44] greater than 50 µM and a TGI [45] greater than 50 µM. It also gave a TGI [46] greater than 50 µM, a TGI [47] greater than 50 µM and a TGI [48] greater than 50 µM. For the same molecule, the TGI [49] was greater than 50 µM, the TGI [50] was greater than 50 µM and the TGI [51] was greater than 50 µM. It also gave a TGI [52] greater than 50 µM, a TGI [53] greater than 50 µM and a TGI [54] greater than 50 µM. For the same molecule, the TGI [55] was greater than 50 µM, the TGI [56] was greater than 50 µM and the TGI [57] was greater than 50 µM.

`COc1ccc2cc1Oc1ccc(cc1)CC1c3cc(c(OC)cc3CCN1C)Oc1c3c(cc4c1C(C2)N(C)CC4)OCO3` (configuration not stated) was tested, and the TGI [1] was 21.5 µM, the TGI [2] was 13.9 µM and the TGI [3] was 8.25 µM. The TGI [5] was 28.8 µM, the TGI [6] was 6.03 µM and the TGI [7] was 5.66 µM. For the same molecule, the TGI [8] was 28.4 µM, the TGI [9] was 6.18 µM and the TGI [10] was 32.4 µM. The TGI [12] was 4.17 µM, the TGI [13] was 21.1 µM and the TGI [14] was 12.9 µM. It also gave a TGI [15] of 30.6 µM, a TGI [16] of 17.5 µM and a TGI [19] of 25.6 µM. The TGI [21] was 15.3 µM, the TGI [22] was 12.7 µM and the TGI [58] was 28.2 µM. The TGI [23] was 14.7 µM, the TGI [24] was 18.4 µM and the TGI [25] was 23.7 µM. For the same molecule, the TGI [26] was 17.3 µM, the TGI [27] was 31.7 µM and the TGI [28] was 22.5 µM. The TGI [29] was 29.8 µM, the TGI [30] was 29.8 µM and the TGI [31] was 15.8 µM. The TGI [32] was 17.2 µM, the TGI [33] was 27.2 µM and the TGI [34] was 31.5 µM. It also gave a TGI [36] of 30.1 µM, a TGI [37] of 26.8 µM and a TGI [38] of 31.9 µM. It also gave a TGI [39] of 6.24 µM, a TGI [40] of 31.5 µM and a TGI [41] of 6.66 µM. The TGI [42] was 25.1 µM, the TGI [43] was 12.1 µM and the TGI [44] was 30 µM. It also gave a TGI [45] of 21.6 µM, a TGI [46] of 30.7 µM and a TGI [47] of 3.52 µM. The TGI [48] was 25.3 µM, the TGI [50] was 36 µM and the TGI [52] was 25.8 µM. The TGI [53] was 21.9 µM, the TGI [54] was 24.2 µM and the TGI [55] was 4.72 µM. For the same molecule, the TGI [57] was 7.45 µM and the TGI [59] was 20.3 µM.
